# Laboratory results published in patent US10357481B2 (MERCK SHARP & DOHME CORP., priority 2015, dated 2019).
# Target: T1, human PDE2A1 (Homo sapiens, UniProt O00408)
# T1 construct: GST; purchased BPS Bioscience (San Diego, Calif.) 60020; host or cells: insect cells
# Assay: IMAP FP PDE selectivity panel, human PDE2A1
# Assay type: biochemical
# Conditions: Lab B; read-out: Human PDE2 Ki (nM) Lab B
# Method in brief: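 IMAP FP read-out, run at room temperature in parallel with PDE1–11: enzyme at 20% substrate conversion, 50 nM FAM-cAMP containing 1000 nM cGMP, Tris pH 7.2/MgCl2/DTT buffer. Compounds as ten 3-fold dilutions. Reaction 60 min, stopped with binding reagent for 1 h before polarization measurement.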
# T1 sequence (O00408 1-920 isoform O00408-2): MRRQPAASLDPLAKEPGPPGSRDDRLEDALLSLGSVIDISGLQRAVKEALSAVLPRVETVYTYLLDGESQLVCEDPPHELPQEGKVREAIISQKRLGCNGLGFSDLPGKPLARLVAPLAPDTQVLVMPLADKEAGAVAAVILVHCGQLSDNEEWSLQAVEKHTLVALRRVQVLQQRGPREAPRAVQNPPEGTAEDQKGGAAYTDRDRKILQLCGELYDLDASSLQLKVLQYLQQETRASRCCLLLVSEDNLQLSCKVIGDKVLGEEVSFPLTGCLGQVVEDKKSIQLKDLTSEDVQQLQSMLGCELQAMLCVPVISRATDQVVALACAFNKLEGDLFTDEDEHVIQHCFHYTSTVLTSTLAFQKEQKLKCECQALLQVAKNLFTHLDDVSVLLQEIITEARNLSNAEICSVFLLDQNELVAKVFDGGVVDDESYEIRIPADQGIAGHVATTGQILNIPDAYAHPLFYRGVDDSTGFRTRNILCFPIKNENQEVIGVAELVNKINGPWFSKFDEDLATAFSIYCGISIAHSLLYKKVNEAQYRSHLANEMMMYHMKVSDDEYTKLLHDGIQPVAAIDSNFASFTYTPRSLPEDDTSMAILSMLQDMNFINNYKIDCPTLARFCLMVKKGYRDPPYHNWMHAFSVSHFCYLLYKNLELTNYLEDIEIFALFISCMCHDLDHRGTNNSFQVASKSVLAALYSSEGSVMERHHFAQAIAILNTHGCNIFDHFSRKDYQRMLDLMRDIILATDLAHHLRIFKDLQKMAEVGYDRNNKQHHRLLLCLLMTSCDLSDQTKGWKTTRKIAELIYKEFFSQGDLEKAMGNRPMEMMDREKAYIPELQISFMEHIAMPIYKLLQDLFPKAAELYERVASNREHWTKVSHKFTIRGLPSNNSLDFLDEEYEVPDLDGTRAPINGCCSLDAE
row,Compound,Ki
1,"Cc1cc(NC2(c3ccc(C(F)(F)F)c(F)c3)CC2)n2nc(C(F)F)nc2n1 [Example 201, 2-(Difluoromethyl)-N-(1-(3-fluoro-4-(trifluoromethyl)phenyl)cyclopropyl)-5-methyl-[1,2,4]triazolo [1,5-a]pyrimidin-7-amine]",131 nM
2,"Cc1cc(N[C@@H](c2ccc(C(F)(F)F)c(F)c2)C(C)(C)C)n2nc(C)nc2n1 [Example 202, (R)-N-(1-(3-Fluoro-4-(trifluoromethyl)phenyl)-2,2-dimethylpropyl)-2,5-dimethyl-[1,2,4]triazolo [1,5-a]pyrimidin-7-amine]",56 nM
3,"CCc1nc2nc(C)cc(N[C@@H](c3ccc(C(F)(F)F)c(F)c3)C(C)(C)C)n2n1 [Example 203, (R)-2-Ethyl-N-(1-(3-fluoro-4-(trifluoromethyl)phenyl)-2,2-dimethylpropyl)-5-methyl-[1,2,4]triazolo [1,5-a]pyrimidin-7-amine]",33 nM
4,"CCCc1nc2nc(C)cc(N[C@@H](c3ccc(C(F)(F)F)c(F)c3)C(C)(C)C)n2n1 [Example 204, (R)-N-(1-(3-Fluoro-4-(trifluoromethyl)phenyl)-2,2-dimethylpropyl)-5-methyl-2-propyl-[1,2,4]triazolo [1,5-a]pyrimidin-7-amine]",17 nM
5,"Cc1cc(N[C@@H](c2ccc(C(F)(F)F)c(F)c2)C(C)(C)C)n2nc(C3CC3)nc2n1 [Example 205, (R)-2-Cyclopropyl-N-(1-(3-fluoro-4-(trifluoromethyl)phenyl)-2,2-dimethylpropyl)-5-methyl-[1,2,4]triazolo [1,5-a]pyrimidin-7-amine]",24 nM
6,"Cc1cc(N[C@@H](c2ccc(C(F)(F)F)c(F)c2)C(C)(C)C)n2nc(CO)nc2n1 [Example 206, (R)-(7-(1-(3-Fluoro-4-(trifluoromethyl)phenyl)-2,2-dimethylpropylamino)-5-methyl-[1,2,4]triazolo [1,5-a]pyrimidin-2-yl)methanol]",184 nM
7,"Cc1cc(N[C@@H](c2ccc(C(F)(F)F)c(F)c2)C(C)(C)C)n2nc(C(F)F)nc2n1 [Example 207, (R)-2-(Difluoromethyl)-N-(1-(3-fluoro-4-(trifluoromethyl)phenyl)-2,2-dimethylpropyl)-5-methyl-[1,2,4]triazolo [1,5-a]pyrimidin-7-amine]",74 nM
8,"Fc1cc(C2(Nc3cc(Cl)nc4ncnn34)CC2)ccc1C(F)(F)F [Example 208, 5-Chloro-N-(1-(3-fluoro-4-(trifluoromethyl)phenyl)cyclopropyl)-[1,2,4]triazolo [1,5-a]pyrimidin-7-amine]",2.7 nM
9,"COc1cc(N[C@@H](c2ccc(C(F)(F)F)c(F)c2)C(C)(C)C)n2ncnc2n1 [Example 233, (R)—N-(1-(3-Fluoro-4-(trifluoromethyl)phenyl)-2,2-dimethylpropyl)-5-methoxy-[1,2,4]triazolo[1,5-a]pyrimidin-7-amine]",256 nM
10,"CCOc1cc(N[C@@H](c2ccc(C(F)(F)F)c(F)c2)C(C)(C)C)n2ncnc2n1 [Example 234, (R)-5-Ethoxy-N-(1-(3-fluoro-4-(trifluoromethyl)phenyl)-2,2-dimethylpropyl)-[1,2,4]triazolo [1,5-a]pyrimidin-7-amine]",1230 nM
11,"COc1cc(NC2(c3ccc(C(F)(F)F)c(F)c3)CC2)n2ncnc2n1 [Example 235, N-(1-(3-Fluoro-4-(trifluoromethyl)phenyl)cyclopropyl)-5-methoxy-[1,2,4]triazolo [1,5-a]pyrimidin-7-amine]",18 nM
12,"CC(C)(C)[C@@H](Nc1cc(O)nc2ncnn12)c1ccc(C(F)(F)F)c(F)c1 [Example 238, (R)-7-(1-(3-Fluoro-4-(trifluoromethyl)phenyl)-2,2-dimethylpropylamino)-[1,2,4]triazolo[1,5-a]pyrimidin-5-ol]",335 nM
13,"CN(C)c1cc(NC2(c3ccc(C(F)(F)F)c(F)c3)CC2)n2ncnc2n1 [Example 239, N^7-(1-(3-Fluoro-4-(trifluoromethyl)phenyl)cyclopropyl)-N,N-dimethyl-[1,2,4]triazolo[1,5-a]pyrimidine-5,7-diamine]",13 nM
14,"CC(C)(C)[C@@H](Nc1cc(N)nc2ncnn12)c1ccc(C(F)(F)F)c(F)c1 [Example 240, (R)-N^7-(1-(3-Fluoro-4-(trifluoromethyl)phenyl)-2,2-dimethylpropyl)-[1,2,4]triazolo [1,5-a]pyrimidine-5,7-diamine]",108 nM
15,"CNc1cc(N[C@@H](c2ccc(C(F)(F)F)c(F)c2)C(C)(C)C)n2ncnc2n1 [Example 241, (R)-N^7-(1-(3-Fluoro-4-(trifluoromethyl)phenyl)-2,2-dimethylpropyl)-N^5-methyl-[1,2,4]triazolo [1,5-a]pyrimidine-5,7-diamine]",375 nM
16,"CN(C)c1cc(N[C@@H](c2ccc(C(F)(F)F)c(F)c2)C(C)(C)C)n2ncnc2n1 [Example 242, (R)-N^7-(1-(3-Fluoro-4-(trifluoromethyl)phenyl)-2,2-dimethylpropy1)-N^5,N^5-dimethyl-[1,2,4]triazolo [1,5-a]pyrimidine-5,7-diamine]",616 nM
17,"OCCCc1cc(NC2(c3ccc(C(F)(F)F)c(F)c3)CC2)n2ncnc2n1 [Example 245, 3-(7-((1-(3-Fluoro-4-(trifluoromethyl)phenyl)cyclopropyl)amino)-[1,2,4]triazo[1,5-a]pyrimidin-5-yl)propan-1-ol]",204 nM

row,Compound,Ki
1,Cc1cc(N(C)C2(c3ccc(C(F)(F)F)c(F)c3)CC2)n2ncnc2n1 [Example 246],46 nM
2,"Cc1cc(N[C@@H](c2ccc(C(F)(F)F)c(F)c2)C(C)(C)C)n2nc(CCCO)nc2n1 [Example 249, (R)-3-(7-(1-(3-Fluoro-4-(trifluoromethyl)phenyl)-2,2-dimethylpropylamino)-5-methyl-[1,2,4]triazolo[1,5-a]pyrimidin-2-yl)propan-1-ol]",40 nM
3,"Cc1cc(N[C@@H](c2ccc(C(F)(F)F)c(F)c2)C(C)(C)C)n2nc(CCO)nc2n1 [Example 250, (R)-2-(7-(1-(3-Fluoro-4-(trifluoromethyl)phenyl)-2,2-dimethylpropylamino)-5-methyl-[1.2.4]triazolo[1,5-a]pyrimidin-2-yl)ethanol]",57 nM
4,"OCCc1cc(NC2(c3ccc(C(F)(F)F)c(F)c3)CC2)n2ncnc2n1 [Example 251, 2-(7-(1-(3-Fluoro-4-(trifluoromethyl)phenyl)cyclopropylamino)-[1,2,4]triazolo[1,5-a]pyrimidin-5-yl)ethanol]",140 nM
5,"Cc1cc(NC(c2ccc(C(F)(F)F)c(F)c2)C(C)(C)N)n2ncnc2n1 (stereo not shown) [Example 252, 1-(3-Fluoro-4-(trifluoromethyl)phenyl)-2-methyl-N-(5-methyl-[1,2,4]triazolo[1,5-a]pyrimidin-7-yl)propane-1,2-diamine]",60 nM
6,"Cc1cc(NC2(c3ccc(C(F)(F)F)c(F)c3)CC2)n2nc(N)nc2n1 [Example 255, N^7-{1-[3-Fluoro-4-(trifluoromethyl)phenyl]cyclopropyl}-5-methyl[1,2,4]triazolo[1,5-a]pyrimidine-2,7-diamine]",22 nM
7,"Cc1cc(NC2(c3ccc(C(F)(F)F)c(F)c3)CC2)n2nc(N(C)C)nc2n1 [Example 256, N^7-{1-[3-Fluoro-4-(trifluoromethyl)phenyl]cyclopropyl}-N^2,N^2,5-trimethyl[1,2,4]triazolo[1,5-a]pyrimidine-2,7-diamine]",608 nM
8,"CNc1nc2nc(C)cc(NC3(c4ccc(C(F)(F)F)c(F)c4)CC3)n2n1 [Example 257, N^7-{1-[3-Fluoro-4-(trifluoromethyl)phenyl]cyclopropyl}-N^2,5-dimethyl[1,2,4]triazolo[1,5-a]pyrimidine-2,7-diamine]",10 nM
9,"C[C@@H](Nc1cnnc2ncnn12)c1ccc(S(F)(F)(F)(F)F)cc1 [Example 259, (R)—N-{1-[4-(Pentafluoro-λ^6-sulfanyl)phenyl]ethyl}-[1,2,4]triazolo[5,1-a][1,2,4]trizain-4-amine]",1430 nM
10,"Cc1cc(OC2(c3ccc(C(F)(F)F)cc3)CC2)n2ncnc2n1 [Example 262, 5-Methyl-7-({1-[4-(trifluoromethyl)phenyl]cyclopropyl}oxy)[1,2,4]triazolo[1,5-a]pyrimidine]",137 nM
11,"Cc1cc(NC2(c3ccc(C(F)(F)F)c(F)c3)CC2)n2ncnc2c1 [Example 263, N-(1-(3-Fluoro-4-(trifluoromethyl)phenyl)cyclopropyl)-7-methyl-[1,2,4]triazolo[1,5-a]pyridin-5-amine]",101 nM
12,"Cc1cc(N[C@@H](c2ccc(C(F)(F)F)c(F)c2)C(C)(C)C)n2ncnc2c1 [Example 264, (R)—N-{1-[3-Fluoro-4-(trifluoromethyl)phenyl]-2,2-dimethylpropyl}-7-methyl-[1,2,4]triazolo[1,5-a]pyridin-5-amine]",292 nM
13,"Cc1cc(N[C@@H](c2ccc(C(F)(F)F)cc2)C(C)(C)O)n2ncnc2c1 [Example 265, (1S)-2-Methyl-1-[(7-methyl[1,2,4]triazolo[1,5-a]pyridin-5-yl)amino]-1-[4-(trifluoromethyl)phenyl]propan-2-ol]",82 nM
14,"OCc1cc(NC2(c3ccc(C(F)(F)F)c(F)c3)CC2)n2ncnc2c1 [Example 266, (5-((1-(3-Fluoro-4-(trifluoromethyl)phenyl)cyclopropyl)amino)-[1,2,4]triazolo[1,5-a]pyridin-7-yl)methanol]",13 nM
15,"C[C@@H](Nc1cc(CO)cc2ncnn12)c1ccc(C(F)(F)F)cc1 [Example 267, [5-({(1R)-1-[4-(Trifluoromethyl)phenyl]ethyl}amino)[1,2,4]triazolo[1,5-a]pyridin-7-yl] methanol]",236 nM
16,"C[C@H](Nc1cc(CO)cc2ncnn12)c1ccc(C(F)(F)F)cc1 [Example 268, [5-({(1S)-1-[4-(Trifluoromethyl)phenyl]ethyl}amino)[1,2,4]triazolo[1,5-a]pyridin-7-yl] methanol]",2080 nM
17,"CC[C@@H](Nc1cc(CO)cc2ncnn12)c1ccc(C(F)(F)F)c(F)c1 [Example 269, [5-({(1R)-1-[3-Fluoro-4-(trifluoromethyl)phenyl]propyl}amino)[1,2,4]triazolo [1,5-a]pyridin-7-yl] methanol]",181 nM
